Measurements: PMC3893891 (Journal of biomolecular screening, 2012)

Legend:
Format in all cases: biochemical
Conditions in all cases: OMFP substrate
[1] = target: T1, PTP1B (Homo sapiens, UniProt P18031); assay: Phosphatase assay of PTP1B
T1 sequence (P18031 1-435): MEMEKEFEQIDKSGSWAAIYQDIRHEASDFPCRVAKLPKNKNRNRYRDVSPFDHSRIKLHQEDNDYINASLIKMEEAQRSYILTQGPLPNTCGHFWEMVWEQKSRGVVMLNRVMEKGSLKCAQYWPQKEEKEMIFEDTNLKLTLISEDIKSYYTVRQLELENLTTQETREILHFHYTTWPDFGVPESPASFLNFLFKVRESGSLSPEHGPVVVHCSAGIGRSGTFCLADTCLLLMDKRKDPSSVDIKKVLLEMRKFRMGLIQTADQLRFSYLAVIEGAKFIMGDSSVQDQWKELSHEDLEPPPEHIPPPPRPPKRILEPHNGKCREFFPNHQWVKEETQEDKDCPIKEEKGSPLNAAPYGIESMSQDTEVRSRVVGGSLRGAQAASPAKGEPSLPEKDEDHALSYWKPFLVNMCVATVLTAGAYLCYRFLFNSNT

[2] = target: T2, Scp1 (Homo sapiens, UniProt Q9GZU7); assay: Phosphatase assay of Scp1
T2 sequence (Q9GZU7 1-261): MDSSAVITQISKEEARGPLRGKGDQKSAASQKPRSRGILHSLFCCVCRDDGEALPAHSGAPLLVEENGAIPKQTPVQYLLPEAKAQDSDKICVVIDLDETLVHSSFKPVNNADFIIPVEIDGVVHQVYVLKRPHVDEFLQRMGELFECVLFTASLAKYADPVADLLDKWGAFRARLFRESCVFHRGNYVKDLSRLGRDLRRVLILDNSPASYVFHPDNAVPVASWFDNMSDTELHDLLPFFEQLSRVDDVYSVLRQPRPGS

[3] = target: T3, PPM1A (Homo sapiens, UniProt P35813); assay: Phosphatase assay of PPM1A
T3 sequence (P35813 1-382): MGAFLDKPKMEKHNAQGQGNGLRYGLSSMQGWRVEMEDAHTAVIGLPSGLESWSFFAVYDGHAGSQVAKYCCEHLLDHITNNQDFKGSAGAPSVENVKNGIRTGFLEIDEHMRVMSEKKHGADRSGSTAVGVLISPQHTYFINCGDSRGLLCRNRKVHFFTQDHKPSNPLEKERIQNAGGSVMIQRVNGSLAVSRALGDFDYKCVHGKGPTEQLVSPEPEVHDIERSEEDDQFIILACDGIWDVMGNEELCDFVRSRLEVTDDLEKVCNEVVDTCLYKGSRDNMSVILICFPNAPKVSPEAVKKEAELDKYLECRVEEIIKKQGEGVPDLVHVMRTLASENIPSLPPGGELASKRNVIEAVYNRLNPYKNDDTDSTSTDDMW

O=C(N/N=C/c1ccc(Sc2ccccn2)o1)c1cccc([N+](=O)[O-])c1 [MLS000700592]
does not significantly inhibit: inhibition of PTP1B phosphatase activity [1] | inhibition of Scp1 phosphatase activity [2] | inhibition of PPM1A phosphatase activity [3]

O=C(N/N=C/c1ccc(Sc2ccccn2)o1)c1ccccc1 [NCGC00241225]
does not significantly inhibit: inhibition of PTP1B phosphatase activity [1] | inhibition of Scp1 phosphatase activity [2] | inhibition of PPM1A phosphatase activity [3]
